Source: US5573748A, “Radiolabeled technetium chelates for use in renal function determinations” (University of Utah Research Foundation, priority 1994, dated 1996)

Tests used:
[1] = Biodistribution in normal mice after intravenous injection (renal uptake); assay type: in vivo
Protocol: Tc-99m-MAGGG was administered simultaneously with I-131 OIH (as a reference standard) to six mice in two groups. Each mouse was injected intravenously with 0.1 milliliters of a preparation containing 0.5 microcuries of Tc-99m-MAGGG and 0.2 microcuries of I-131 OIH, and then placed into a metabolic cage capable of collecting excreted urine.
Ten minutes after injection, each mouse's urethra was ligated and the mouse was sacrificed by chloroform vapor; various samples were then taken to determine biodistribution of radiolabeled material. The results of these samples are shown in Table I. Similar measurements, shown in Table II, were taken on the second group of mice 120 minutes after injection.

[2] = cited from earlier work
[3] = Renal excretion in humans (normal volunteers); assay type: in vivo
Protocol: The renal excretion of Tc-99m-MAGGG in humans was obtained based upon experiments on normal volunteers. For purposes of comparison, tests were also conducted using I-131 OIH either immediately before or after the study using Tc-99m-MAGGG.
In Example 6, the Tc-99m-MAGGG used was prepared with stannous reduction similar to the procedure set forth in Example 2, with glucoheptonate being used as an intermediate exchange ligand. In Example 7, dithionite was used as a reducing agent instead of using stannous reduction. Both examples provided Tc-99m-MAGGG having the same major peak on a HPLC column.
In both examples, the subject was injected with a dosage containing about 15 millicuries of Tc-99m-MAGGG. The comparative tests utilizing I-131 OIH involved administration of about 300 microcuries of I-131 OIH. In both instances, imaging of the kidneys ureters, and blood pool was conducted for a period of about 30 minutes, following which the count rate in the bladder was measured.
Thereafter, the bladder was voided, and an additional image was taken to detect the presence of residual radioactivity in order to allow determination of the percent of urine radioactivity at 30 minutes. Measurements were also taken at 3 hours.

[4] = Biodistribution in probenicid-treated mice (inhibited renal tubular transport); assay type: in vivo; conditions: probenicid-treated mice (50 mg/kg), 10 minutes after injection
Protocol: In order to test the biodistribution of Tc-99m-MAGGG in mice having inhibited renal tubular transport, six mice were injected with a solution of probenicid at the rate of 50 milligrams of probenicid per kilogram of body weight. Ten minutes later, each mouse was injected with 0.1 milliliters of a solution containing 0.5 microcuries of Tc-99m-MAGGG and 0.2 microcuries of I-131 OIH. After an additional ten minutes, each mouse was sacrificed and various samples taken to determine biodistribution of radiolabeled material.

## Tc-99m-mercaptoacetylglycylglycylglycylglycine [Tc-99m-MAGGGG]
[1]; 10 minutes
  level in the urine relative to corresponding level of I-131 OIH: 86.7%
[1]; 10 minutes after injection
  Blood: 2.7 percentage of radioactive agen
  Intestine: 10.3 percentage of radioactive agen
  Kidneys: 3.3 percentage of radioactive agen
  Liver: 9.9 percentage of radioactive agen
  Stomach: .2 percentage of radioactive agen
  Urine: 58.4 percentage of radioactive agen
[1]; 120 minutes
  level in the urine relative to corresponding level of I-131 OIH: 87.6%
[1]; 120 minutes after injection
  Blood: .04 percentage of radioactive agen
  Intestine: 16.0 percentage of radioactive agen
  Kidneys: .2 percentage of radioactive agen
  Liver: 1.1 percentage of radioactive agen
  Stomach: .05 percentage of radioactive agen
  Urine: 82.5 percentage of radioactive agen

## Tc-99m-N,N'-bis(mercaptoacetyl)-2,3-diaminopropanoate [Tc-99m-CO2 -DADS-A]
[2]; in vivo
  excreted less effectively than I-131 OIH: ~20%

## O=C(O)CNC(=O)c1ccccc1[131I] [I-131 OIH, I-131 ortho-iodohippurate, reference compound]
[3]; 30 minutes
  urine radioactivity (renal excretion): 65.5 ± 6.3 percentage of radioactive agen
[3]; 3 hours
  urine radioactivity (renal excretion): 93.5 ± 3.2 percentage of radioactive agen
[1]; 10 minutes after injection
  Blood: 4.1 percentage of radioactive agen
  Intestine: 1.0 percentage of radioactive agen
  Kidneys: 2.2 percentage of radioactive agen
  Liver: 1.8 percentage of radioactive agen
  Stomach: 0.5 percentage of radioactive agen
  Urine: 74.4 percentage of radioactive agen
[1]; 120 minutes after injection
  Blood: 0.14 percentage of radioactive agen
  Intestine: 0.16 percentage of radioactive agen
  Kidneys: 0.06 percentage of radioactive agen
  Liver: 0.11 percentage of radioactive agen
  Stomach: 0.98 percentage of radioactive agen
  Urine: 96.0 percentage of radioactive agen
[2]; in vivo
  renal extraction efficiency: 65%-80
[4]
  Blood: 7.0 percentage of radioactive agen
  Intestine: 2.0 percentage of radioactive agen
  Kidneys: 3.6 percentage of radioactive agen
  Liver: 3.7 percentage of radioactive agen
  Stomach: 0.75 percentage of radioactive agen
  Urine: 59.2 percentage of radioactive agen

## Nc1ccc(C(=O)NCC(=O)O)cc1 [PAH, para-aminohippuric acid]
[2]; in vivo
  fraction in the blood removed by the kidneys: ~90%
  fraction removed from the plasma by active secretion into the tubules: ~70%

## Tc-99m-mercaptoacetylglycylglycylglycine [Tc-99m-MAGGG]
[3]; 30 minutes
  urine radioactivity (renal excretion): 71.8 ± 4.2 percentage of radioactive agen
[3]; 3 hours
  urine radioactivity (renal excretion): 98.6 ± 1.6 percentage of radioactive agen
[1]; 10 minutes
  level in the urine relative to corresponding level of I-131 OIH: 107.3%
[1]; 10 minutes after injection
  Blood: 2.6 percentage of radioactive agen
  Intestine: 1.1 percentage of radioactive agen
  Kidneys: 3.5 percentage of radioactive agen
  Liver: 2.9 percentage of radioactive agen
  Stomach: 0.1 percentage of radioactive agen
  Urine: 79.9 percentage of radioactive agen
[1]; 120 minutes
  level in the urine relative to corresponding level of I-131 OIH: 102.6%
[1]; 120 minutes after injection
  Blood: 0.03 percentage of radioactive agen
  Intestine: 1.2 percentage of radioactive agen
  Kidneys: 0.06 percentage of radioactive agen
  Liver: 0.08 percentage of radioactive agen
  Stomach: 0.02 percentage of radioactive agen
  Urine: 98.5 percentage of radioactive agen
[4]
  Blood: 6.0 percentage of radioactive agen
  Intestine: 1.6 percentage of radioactive agen
  Kidneys: 5.4 percentage of radioactive agen
  Liver: 5.9 percentage of radioactive agen
  Stomach: 0.24 percentage of radioactive agen
  Urine: 64.7 percentage of radioactive agen

## Tc-99m diethylenetriaminepentaacetic acid [Tc-99m-DTPA]
[2]; glomerular filtration only
  maximum extraction efficiency: 20-25%

## Tc-99m-N,N'-bis(mercaptoacetyl)-2,3-diaminopropanoate [Tc-99m-CO2 -DADS-B]
[2]; in vivo
  removal by the kidneys compared with Tc-99m-CO2-DADS-A isomer: far less efficiently removed by the kidneys

## Tc-99m-mercapoacetylglycylglycylalanine [Tc-99m-MAGG-Alanine]
[1]; 10 minutes
  level in the urine relative to corresponding level of I-131 OIH: 106.4%
[1]; 10 minutes after injection
  Blood: 2.6 percentage of radioactive agen
  Intestine: 1.6 percentage of radioactive agen
  Kidneys: 5.2 percentage of radioactive agen
  Liver: 2.6 percentage of radioactive agen
  Stomach: .2 percentage of radioactive agen
  Urine: 75.1 percentage of radioactive agen
[1]; 120 minutes
  level in the urine relative to corresponding level of I-131 OIH: 102.2%
[1]; 120 minutes after injection
  Blood: .2 percentage of radioactive agen
  Intestine: 2.2 percentage of radioactive agen
  Kidneys: .3 percentage of radioactive agen
  Liver: .1 percentage of radioactive agen
  Stomach: .2 percentage of radioactive agen
  Urine: 96.0 percentage of radioactive agen
